Measurements from ChEMBL document CHEMBL1201862, “PubChem BioAssay data set” (2004).
Active and inactive are the calls of the source.

Experiments:
Beta-galactosidase = Beta-galactosidase (Escherichia coli, UniProt Q8VNN2); assay: PubChem AID 485352; format: functional
[1] = target: T1, Alkaline phosphatase, tissue-nonspecific isozyme (Homo sapiens, UniProt P05186); assay: TNAP enzyme inhibition by screening hits, dose response, selectivity assay for mouse IAP inhibitor project, biochemical, human TNAP, uHTS hits (AID 488906); format: functional
T1 sequence (P05186 whole entry): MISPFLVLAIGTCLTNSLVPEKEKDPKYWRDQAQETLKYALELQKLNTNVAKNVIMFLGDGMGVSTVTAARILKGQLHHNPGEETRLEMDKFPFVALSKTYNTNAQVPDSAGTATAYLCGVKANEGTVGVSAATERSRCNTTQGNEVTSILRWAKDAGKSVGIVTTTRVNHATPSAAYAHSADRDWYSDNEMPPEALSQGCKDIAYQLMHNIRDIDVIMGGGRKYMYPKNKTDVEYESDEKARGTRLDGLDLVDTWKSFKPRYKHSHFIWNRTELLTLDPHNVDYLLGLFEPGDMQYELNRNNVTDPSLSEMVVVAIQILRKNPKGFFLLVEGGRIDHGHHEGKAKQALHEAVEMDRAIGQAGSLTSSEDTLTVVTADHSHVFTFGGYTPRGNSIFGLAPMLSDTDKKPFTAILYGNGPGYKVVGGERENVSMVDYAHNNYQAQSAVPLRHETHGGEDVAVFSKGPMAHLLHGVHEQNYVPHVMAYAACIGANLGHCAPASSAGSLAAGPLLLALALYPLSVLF

[2] = target: Intestinal-type alkaline phosphatase (Homo sapiens, UniProt P09923); assay: inhibition of human intestinal alkaline phosphatase – biochemical, dose response (AID 488876); format: functional
Chain of Intestinal-type alkaline phosphatase (Homo sapiens, UniProt P09923) (P09923 whole entry): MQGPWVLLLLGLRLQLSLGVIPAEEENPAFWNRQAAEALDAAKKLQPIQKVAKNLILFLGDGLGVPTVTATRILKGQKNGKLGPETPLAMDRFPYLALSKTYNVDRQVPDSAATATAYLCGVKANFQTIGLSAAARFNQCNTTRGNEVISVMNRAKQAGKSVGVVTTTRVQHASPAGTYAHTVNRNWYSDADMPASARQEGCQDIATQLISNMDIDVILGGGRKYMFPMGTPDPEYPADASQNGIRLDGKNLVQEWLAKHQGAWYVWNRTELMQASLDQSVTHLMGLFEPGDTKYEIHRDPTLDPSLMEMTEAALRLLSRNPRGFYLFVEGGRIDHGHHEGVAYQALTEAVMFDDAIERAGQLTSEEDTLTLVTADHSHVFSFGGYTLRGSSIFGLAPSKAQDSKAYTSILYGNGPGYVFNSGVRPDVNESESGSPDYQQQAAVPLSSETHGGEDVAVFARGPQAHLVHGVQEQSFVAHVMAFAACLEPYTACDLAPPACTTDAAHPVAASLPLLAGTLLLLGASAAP

[3] = target: Heat shock protein HSP 90-alpha (Homo sapiens, UniProt P07900); format: functional, organism-based
[4] = target: Intestinal-type alkaline phosphatase (Mus musculus, UniProt P24822); assay: PubChem AID 488785; format: functional
Chain of Intestinal-type alkaline phosphatase (Mus musculus, UniProt P24822) (P24822 whole entry): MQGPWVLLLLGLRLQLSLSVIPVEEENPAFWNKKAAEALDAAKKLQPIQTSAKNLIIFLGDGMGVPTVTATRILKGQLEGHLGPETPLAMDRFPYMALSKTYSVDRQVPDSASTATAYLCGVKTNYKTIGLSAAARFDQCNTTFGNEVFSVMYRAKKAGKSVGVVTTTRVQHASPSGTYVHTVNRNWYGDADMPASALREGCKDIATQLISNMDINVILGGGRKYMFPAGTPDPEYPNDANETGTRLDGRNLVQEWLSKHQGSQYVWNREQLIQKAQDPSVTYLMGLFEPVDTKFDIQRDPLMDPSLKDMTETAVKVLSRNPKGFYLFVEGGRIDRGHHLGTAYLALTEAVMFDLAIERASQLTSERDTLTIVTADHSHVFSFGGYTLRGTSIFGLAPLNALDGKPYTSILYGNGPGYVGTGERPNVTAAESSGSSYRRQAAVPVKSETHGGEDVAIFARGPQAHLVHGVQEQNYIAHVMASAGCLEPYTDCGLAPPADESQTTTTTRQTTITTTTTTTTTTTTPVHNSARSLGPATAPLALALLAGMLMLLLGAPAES

[5] = target: T2, Type-1 angiotensin II receptor (Homo sapiens, UniProt P30556); assay: antagonism of angiotensin II type 1 receptor – cell-based, uHTS hits, selectivity assay for APJ receptor antagonist project, dose response (AID 463214); format: functional;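 further: antagonist potency against angiotensin II stimulated AT1 response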
T2 sequence (P30556 whole entry): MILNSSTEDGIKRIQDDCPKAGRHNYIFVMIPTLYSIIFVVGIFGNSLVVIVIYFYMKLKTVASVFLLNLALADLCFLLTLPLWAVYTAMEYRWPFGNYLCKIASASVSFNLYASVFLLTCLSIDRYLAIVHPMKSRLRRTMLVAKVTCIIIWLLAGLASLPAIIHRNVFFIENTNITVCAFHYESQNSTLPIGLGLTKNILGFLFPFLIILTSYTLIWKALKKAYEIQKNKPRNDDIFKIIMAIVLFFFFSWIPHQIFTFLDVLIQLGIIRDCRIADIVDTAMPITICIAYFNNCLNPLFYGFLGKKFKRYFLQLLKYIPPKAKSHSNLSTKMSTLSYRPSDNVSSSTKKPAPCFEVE

[6] = target: T3, Small ubiquitin-related modifier 1 (Homo sapiens, UniProt P63165); assay: SUMO1 protein-protein binding blockers, potency – biochemical, FRET, dose response (AID 624383); format: functional; conditions: read-out: IC50_Mean
T3 sequence (P63165 whole entry): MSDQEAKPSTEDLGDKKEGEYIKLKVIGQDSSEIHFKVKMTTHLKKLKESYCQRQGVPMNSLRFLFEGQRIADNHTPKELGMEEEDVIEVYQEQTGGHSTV

[7] = target: T4, Apoptotic protease-activating factor 1 (Homo sapiens, UniProt O14727); assay: activation of Apaf-1 mediated apoptosis – fluorescent, uHTS hits, dose response (AID 588554); format: functional
T4 sequence (O14727 whole entry): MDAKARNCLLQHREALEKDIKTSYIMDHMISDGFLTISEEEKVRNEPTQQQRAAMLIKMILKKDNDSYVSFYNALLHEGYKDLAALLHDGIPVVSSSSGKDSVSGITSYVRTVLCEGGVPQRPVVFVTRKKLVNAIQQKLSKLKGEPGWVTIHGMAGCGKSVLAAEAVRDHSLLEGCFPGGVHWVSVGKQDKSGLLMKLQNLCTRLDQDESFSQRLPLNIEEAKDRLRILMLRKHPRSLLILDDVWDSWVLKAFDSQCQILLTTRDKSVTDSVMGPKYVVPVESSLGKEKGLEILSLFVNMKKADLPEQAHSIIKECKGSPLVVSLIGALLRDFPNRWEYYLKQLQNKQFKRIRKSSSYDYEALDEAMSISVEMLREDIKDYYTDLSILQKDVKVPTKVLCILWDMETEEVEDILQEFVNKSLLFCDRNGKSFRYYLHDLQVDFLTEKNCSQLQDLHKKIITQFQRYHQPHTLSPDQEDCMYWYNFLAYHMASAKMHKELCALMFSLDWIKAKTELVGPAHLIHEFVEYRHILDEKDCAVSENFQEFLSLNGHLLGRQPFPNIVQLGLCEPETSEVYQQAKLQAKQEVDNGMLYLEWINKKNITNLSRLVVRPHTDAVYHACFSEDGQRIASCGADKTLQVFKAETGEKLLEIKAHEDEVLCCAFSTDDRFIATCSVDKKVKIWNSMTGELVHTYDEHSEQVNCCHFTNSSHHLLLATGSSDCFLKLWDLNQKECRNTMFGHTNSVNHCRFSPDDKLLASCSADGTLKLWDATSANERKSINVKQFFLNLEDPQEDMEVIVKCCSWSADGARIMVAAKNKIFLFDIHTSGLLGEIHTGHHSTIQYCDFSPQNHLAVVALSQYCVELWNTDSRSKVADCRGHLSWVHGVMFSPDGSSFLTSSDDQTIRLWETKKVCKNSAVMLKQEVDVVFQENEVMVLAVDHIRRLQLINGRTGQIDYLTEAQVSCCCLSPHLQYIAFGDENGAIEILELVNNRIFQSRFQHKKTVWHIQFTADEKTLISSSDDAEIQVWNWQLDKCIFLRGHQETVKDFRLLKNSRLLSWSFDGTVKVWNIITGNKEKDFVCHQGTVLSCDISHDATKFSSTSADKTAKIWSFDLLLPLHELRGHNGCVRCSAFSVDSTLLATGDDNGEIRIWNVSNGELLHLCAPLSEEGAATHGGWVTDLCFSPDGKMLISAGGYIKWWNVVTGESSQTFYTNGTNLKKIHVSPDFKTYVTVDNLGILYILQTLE

[8] = target: DNA dC->dU-editing enzyme APOBEC-3A (Homo sapiens, UniProt P31941); assay: A3A deaminase inhibition for selectivity – biochemical, dose response (AID 504722); format: functional
Chain of DNA dC->dU-editing enzyme APOBEC-3A (P31941 whole entry): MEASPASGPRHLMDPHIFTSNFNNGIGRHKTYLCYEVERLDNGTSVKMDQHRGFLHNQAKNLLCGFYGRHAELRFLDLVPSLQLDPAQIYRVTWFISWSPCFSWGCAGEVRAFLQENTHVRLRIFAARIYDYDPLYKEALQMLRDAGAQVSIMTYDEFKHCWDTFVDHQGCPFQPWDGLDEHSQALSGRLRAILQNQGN

[9] = target: DNA dC->dU-editing enzyme APOBEC-3G (Homo sapiens, UniProt Q9HC16); assay: Dose Response confirmation of small molecule APOBEC3G DNA Deaminase Inhibitors via a fluorescence-based single-stranded DNA deaminase assay. [Related pubchem assays (depositor defined):AID493012, AID493028]; format: functional
Chain of DNA dC->dU-editing enzyme APOBEC-3G (Q9HC16 whole entry): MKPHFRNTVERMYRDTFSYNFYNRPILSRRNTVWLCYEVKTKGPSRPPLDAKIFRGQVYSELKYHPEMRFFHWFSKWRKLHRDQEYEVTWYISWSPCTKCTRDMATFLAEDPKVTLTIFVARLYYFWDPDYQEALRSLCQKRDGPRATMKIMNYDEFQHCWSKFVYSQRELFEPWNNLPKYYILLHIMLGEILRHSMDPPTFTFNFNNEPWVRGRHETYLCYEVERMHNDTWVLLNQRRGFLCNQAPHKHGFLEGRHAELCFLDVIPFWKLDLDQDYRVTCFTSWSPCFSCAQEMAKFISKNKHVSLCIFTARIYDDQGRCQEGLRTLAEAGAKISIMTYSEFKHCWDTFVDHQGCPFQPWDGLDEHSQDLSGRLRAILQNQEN

[10] = target: T3, Small ubiquitin-related modifier 1; assay: SUMO1 protein interaction blockers, potency – biochemical, fluorescence polarization, uHTS hits, dose response (AID 624382); format: functional; conditions: read-out: IC50_Mean
[11] = target: T5, Carboxy-terminal domain RNA polymerase II polypeptide A small phosphatase 1 (Homo sapiens, UniProt Q9GZU7); assay: CTDSP1 inhibitors, concentration-response, biochemical, absorbance readout, ultra-high-throughput screen actives (AID 540297); format: functional
T5 sequence (Q9GZU7 whole entry): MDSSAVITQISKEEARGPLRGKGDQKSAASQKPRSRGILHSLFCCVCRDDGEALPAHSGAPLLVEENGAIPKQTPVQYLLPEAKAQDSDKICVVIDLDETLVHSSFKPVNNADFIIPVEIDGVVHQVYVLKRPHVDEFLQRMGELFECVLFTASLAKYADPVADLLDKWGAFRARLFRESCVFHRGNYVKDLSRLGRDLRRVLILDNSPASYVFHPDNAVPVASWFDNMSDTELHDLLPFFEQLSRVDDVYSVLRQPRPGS

Chain of Beta-galactosidase (Q8VNN2 whole entry): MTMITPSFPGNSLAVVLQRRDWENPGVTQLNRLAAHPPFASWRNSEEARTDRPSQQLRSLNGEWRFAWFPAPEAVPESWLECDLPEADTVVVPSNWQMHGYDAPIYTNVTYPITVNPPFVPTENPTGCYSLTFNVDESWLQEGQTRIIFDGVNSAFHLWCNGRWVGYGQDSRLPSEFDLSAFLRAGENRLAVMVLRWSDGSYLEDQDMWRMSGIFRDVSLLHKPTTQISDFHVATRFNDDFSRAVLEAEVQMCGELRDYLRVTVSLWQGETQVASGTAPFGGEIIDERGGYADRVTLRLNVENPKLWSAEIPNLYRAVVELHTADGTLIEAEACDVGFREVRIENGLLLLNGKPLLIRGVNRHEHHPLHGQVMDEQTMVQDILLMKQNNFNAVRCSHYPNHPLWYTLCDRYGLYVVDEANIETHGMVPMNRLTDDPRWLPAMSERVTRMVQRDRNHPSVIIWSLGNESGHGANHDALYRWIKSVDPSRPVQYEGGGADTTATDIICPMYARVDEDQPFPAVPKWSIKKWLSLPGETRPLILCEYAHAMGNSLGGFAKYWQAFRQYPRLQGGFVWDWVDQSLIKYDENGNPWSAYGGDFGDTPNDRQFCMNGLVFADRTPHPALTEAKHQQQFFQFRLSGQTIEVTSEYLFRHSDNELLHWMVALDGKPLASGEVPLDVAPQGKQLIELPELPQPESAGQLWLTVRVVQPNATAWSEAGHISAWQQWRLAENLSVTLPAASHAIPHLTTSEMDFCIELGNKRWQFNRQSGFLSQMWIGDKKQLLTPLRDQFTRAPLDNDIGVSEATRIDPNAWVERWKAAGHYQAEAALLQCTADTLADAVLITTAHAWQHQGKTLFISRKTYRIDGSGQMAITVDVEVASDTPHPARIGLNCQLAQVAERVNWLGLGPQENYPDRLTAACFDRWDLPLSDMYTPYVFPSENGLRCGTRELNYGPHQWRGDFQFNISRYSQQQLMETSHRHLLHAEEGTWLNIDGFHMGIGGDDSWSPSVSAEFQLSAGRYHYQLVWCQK

EC50 (Beta-galactosidase)	IC50 [1]	IC50 [2]	AC50 [3]	IC50 [4]	IC50 [5]	Compound	IC50 [6]	EC50 [7]	IC50 [8]	IC50 [9]	IC50 [10]	IC50 [11]
> 40 µM (inactive)	> 100 µM (inactive)	> 100 µM (inactive)	1.01 µM (active)	13 µM (active)	10.4 µM (active)	COc1cc(/C=C/[N+](=O)[O-])ccc1OC(=O)c1cc2ccccc2oc1=O						
						C=C(C)C(=O)Nc1cccc(C2=NOC3(C2)C[C@@H](C(N)=O)N(C(=O)c2cc([N+](=O)[O-])cc([N+](=O)[O-])c2C)C3)c1 (some centres not stated)	8.54 µM (active)	10.8 µM (active)	> 100 µM (inactive)	14 µM (active)	> 66.6 µM (inactive)	4.59 µM (active)
